We go through ten molecules from patent US20250320253A1, “TRANSMEMBRANE PEPTIDIC ANTAGONISTS OF PLEXIN-A1 AND THEIR THERAPEUTIC USES” (UNIVERSITE DE STRASBOURG, priority 2021, published 2025).

Data set [1] is described as follows: MTP solubility in PBS and PBS/LDS. In kind it is physicochemical. Here is the method: The solubility of the MTPs was tested either in phosphate buffered saline (PBS) or in a mixture of PBS and lithium dodecyl sulfate (LDS).
Data set [2] relates to cuprizone-induced demyelination. Conditions: mouse, in vivo. Here is the method:
It was next assessed whether […] can induce remyelination of the CNS and motor function recovery following demyelination induced by cuprizone, a copper-chelating agent, in a mouse model. Oral intoxication with cuprizone induces oligodendrocyte apoptosis within a few days, which is closely followed by the activation of the innate immune cells in the brain, i.e., astrocytes and microglia, finally leading to demyelination of distinct white and grey matter brain areas. […] (10 μg/kg) for 6 consecutive days (n=10) • (e) 5 weeks cuprizone, followed by treatment with […] (100 μg/kg) for 6 consecutive days (n=10) • (f) 5 weeks cuprizone, followed by treatment with vehicle for 11 consecutive days (n=10) • (g) 5 weeks cuprizone, followed by treatment with […] (10 μg/kg) for 11 consecutive days (n=10) • (h) 5 weeks cuprizone, followed by treatment with […] (100 μg/kg) for 11 consecutive days (n=10) Acute demyelination was induced by intoxicating for five consecutive weeks 8-week-old (19-21 g) male mice a diet containing 0.25% cuprizone [bis(cyclohexanone)oxaldihydrazone; Sigma-Aldrich Inc., St Louis, MO, USA] mixed into a ground standard rodent chow. […]

In data set [3] the test system is oligodendrocyte cell line Oli-neu. Kind of data set: Cell migration assay (Transwell CIM-Plate, xCELLigence), rescue of Sema3A negative effect. The data set is classed as cell-based. Conditions: 20 ng/ml Sema3A. Here is the method:
Cells were pre-incubated 1 h with vehicle alone or MTP. The 1×10^5 cells were seeded in the upper chamber with 150 μl of medium. The bottom well contained 160 μl of medium supplemented with 2% fetal bovine serum for chemoattraction and 20 ng/ml Sema3A (Recombinant Mouse Semaphorin 3A Fc Chimera Protein Carrier Free ref: 5926-S3/CF; RnD Systems) for repulsion. Analysis was performed after 8 h of migration according to the manufacturer's instructions. Data are expressed as a percentage of positive control migration, i.e. the migration of Oli-neu with 2% serum and without Sema3A.

Data set [4] deals with T1, NRP1-PlexinA1 interaction (Mus musculus, UniProt P70206).
T1 construct: endogenous in cells; host or cells: Oli-neu cells
Kind of data set: Proximity ligation assay of Neuropilin-1/Plexin-A1 receptor dimers in Oli-neu cells. The data set is classed as cell-based. Conditions: for Normalized interactions Nrp1-PlexinA1/cell: Oli-neu cells treated with peptides at 10^−7 M, vehicle 100; for reduction of the number of NRP1/PlexinA1 interactions: 10^−7 M. Here is the method: After fixation with 1% PFA for 10 min, slices were permeabilized with PBS/0.1% Triton X-100. Primary antibodies (NRP1 from Evitria, 1:500; and Plexin-A1 from Abcam, ab23391, 1:200) were incubated overnight at 4° C. in PBS. The proximity ligation assay allowing to visualize receptor dimers (Neuropilin-1/Plexin-A1) was then performed according to the manufacturer's recommendations with the “detection orange” kit (Sigma). Quantification of the interactions (fluorescent dots at the cell surface) was performed using ImageJ software.

In data set [5] the target is Plexin-A1 (on Oli-neu cells) (UniProt P70206). Kind of data set: proximity ligation assay on Oli-neu cells, peptide at 10^-7 M for 1 h; NRP1/Plexin-A1 dimers counted.
Data set [6] has the same target. Briefly: proximity ligation assay on Oli-neu cells, dose response; inhibition of NRP1/Plexin-A1 interactions.
[7] abbreviates: Solubilization vehicle PBS 100%.

Entries after “also recorded” stand apart in the source; their conditions may differ. Ends that are not written are not given here.

As for “TLPAIGVITLVGLGVLELVAEGVYEEEEE [HODR, reference compound]”, the Measured concentration in data set [1] (setting [7]) was 189 µM.
On to TLPAITGLVGGVGLLLEVIVEVAYEEEEE [GUNGNIR], for which, in data set [2], the body weight entry is “no differences were observed” and the “percentage loss of body weight relative to vehicle-treated groups” value is “significantly less pronounced”. This molecule registered an IC50 in data set [3] (n=3) of 1.2 nM. In addition, the “Normalized interactions Nrp1-PlexinA1/cell” value in data set [4] turned out to be 40.4. Moreover, in data set [4] (Oli-neu cells), the “reduction of the number of NRP1/PlexinA1 interactions” value is reported as −60%. In data set [1] (setting [7]), the Measured concentration was found to be 248 µM.
On to TLPAIVGIGGGGGELLLVIVEVLIYEEEEE [RATI], for which the Measured concentration in data set [1] (setting [7]) turned out to be 224 µM.
For the molecule “TLPAIVGIGGGGGLLLEVIVEVLIAYEEEEE [DRAUPNIR]”, the Measured concentration in data set [1] (setting [7]) stood at 260 µM.
Regarding “TLPAIVGIGGGGGLLLLVIVAVLIAYKRK [MTP-PlexA1, reference compound]”, the Measured concentration came out at 0 µM in data set [1] (setting [7]) and 360 µM in data set [1] (Solubilization vehicle PBS 100% LDS 72 mM).
As for TLPAIVSIGGGVVLLLEVIVEVAYEEEEE [MIMMING], in data set [3] (8 h of migration), the “rescue of Sema3A negative effect on migration” value was “able to counteract; also recorded: rescue migration”. The “Normalized interactions Nrp1-PlexinA1/cell” value in data set [4] worked out at 49.4. In data set [4] (Oli-neu cells), the “reduction of the number of NRP1/PlexinA1 interactions” value is given as −51%. Also, the IC50 in data set [4] (Oli-neu cells, dose response, read-out: IC50, number of NRP1/PlexinA1 interactions) is 17 nM.
As for “TLPVIGVIVLVGSAVLELIAEGVYEEEEE [SURTR, reference compound]”, the “Normalized interactions Nrp1-PlexinA1/cell” value in data set [4] was 96.8.
Regarding TLPVIGVIVLVGSAVLELIAEGVYEEEEE [SURTR], the Normalized interactions Nrp1-PlexinA1/cell (normalized to vehicle = 100) in data set [5] was 96.8.
For TLPAITGLVGGVGLLLEVIVEVAYEEEEE [GUNGNIR], the IC50 in data set [6] is 0.074 nM. The molecule also displayed a Normalized interactions Nrp1-PlexinA1/cell (normalized to vehicle = 100) in data set [5] of 40.4.
In data set [5], TLPAIVSIGGGVVLLLEVIVEVAYEEEEE [MIMMING] yielded a Normalized interactions Nrp1-PlexinA1/cell (normalized to vehicle = 100) of 49.4.
